Read-outs that look alike come from different tables or passages of the source.
How the values were obtained:
[1] = test system: P-PRAS40 SW48(H1047R); assay: Inhibition of P-PRAS40 in SW48 isogenic cells, PI3Kα mutant H1047R; assay type: cell-based; conditions: for EC50: Homo sapiens, SW48, 24 hours of compound treatment, read-out: P-PRAS40 SW48(H1047R) EC50; for Fold Selectivity for SW48(H1047R) vs. SW48(parental): EC50 potency ratio, p value (Student t-Test) given
Protocol: (§1) All statistics were performed using KaleidaGraph Software (version 4.1.3). A Student t-Test was performed using unpaired data with equal variance to compare activity against mutant cells and wild-type cells. P<0.05 is considered to be significant.
(§2) The following assays are intended for determining the cellular potency and mutant selectivity of small molecule PI3Kα inhibitors. […] Mutant selectivity of PI3Kα inhibitors is determined by EC50 potency ratios in the WT vs. E545K cell lines and WT vs. H1047R cell lines.
(§3) The three cell lines (WT, E545K, and H1047R) are plated and assayed in parallel. The following day, test compounds are serially diluted in dimethyl sulfoxide (DMSO) and added to cells (final DMSO concentration 0.5%). […] Cell lysates are added to assay plates pre-coated with antibodies against phosphorylated PRAS40. Phosphorylated PRAS40 in samples are allowed to bind to the capture antibodies overnight at 4° C. The detection antibody (anti-total PRAS40, labeled with an electrochemiluminescent SULFO-TAG) is added to the bound lysate and incubated for 1 hour at room temperature. The MSD Read Buffer is added such that when a voltage is applied to the plate electrodes, the labels bound to the electrode surface emit light. The MSD Sector Instrument measures the intensity of the light, and quantitatively measures the amount of phosphor-PRAS40 in the sample. Percent inhibition of PRAS40 phosphorylation by varying concentrations of test compounds is calculated relative to untreated controls. EC50 values are calculated using the 4 parameter logistic nonlinear regression dose-response model.

[2] = test system: P-PRAS40 SW48(parental); assay: Inhibition of P-PRAS40 in SW48 isogenic cells, PI3Kα wild-type (parental); conditions: Homo sapiens, SW48, 24 h
Protocol: The three cell lines (WT, E545K, and H1047R) are plated and assayed in parallel. The following day, test compounds are serially diluted in dimethyl sulfoxide (DMSO) and added to cells (final DMSO concentration 0.5%). Cells are then incubated for 24 hours at 37° C. and 5% CO2. […] Cell lysates are added to assay plates pre-coated with antibodies against phosphorylated PRAS40. Phosphorylated PRAS40 in samples are allowed to bind to the capture antibodies overnight at 4° C. The detection antibody (anti-total PRAS40, labeled with an electrochemiluminescent SULFO-TAG) is added to the bound lysate and incubated for 1 hour at room temperature. The MSD Read Buffer is added such that when a voltage is applied to the plate electrodes, the labels bound to the electrode surface emit light. The MSD Sector Instrument measures the intensity of the light, and quantitatively measures the amount of phosphor-PRAS40 in the sample. Percent inhibition of PRAS40 phosphorylation by varying concentrations of test compounds is calculated relative to untreated controls. EC50 values are calculated using the 4 parameter logistic nonlinear regression dose-response model.

[3] = target: T1, PI3Kβ (Homo sapiens, UniProt P42338); assay: PI3K binding assay (lipid kinase reaction, ADP-Glo), PI3K beta; assay type: biochemical; conditions: Table 2A; first value of cell (ADP-Glo, Example 901)
Protocol: (§4) Reactions are carried out using the following conditions for each PI3K isoform as in Table 5.
(§5) All reactions are carried out at room temperature. […] The reaction is started by the addition of 2 μL ATP/MgCl2. The kinase reaction buffer contains 50 mM HEPES, 50 mM NaCl 3 mM MgCl2, 0.01% BSA, 1% DMSO, and enzyme and substrate concentrations as indicated in the above table. The reaction is stopped by the addition of 10 μL ADP-Glo reagent. Plates are read in a Perkin Elmer Envision system using luminescence mode. 10 point dose response curves are generated for each test compound. Ki values for each compound are determined using the Morrison Equation.

[4] = target: PI3Kδ (Homo sapiens, UniProt O00329); assay: PI3K binding assay (lipid kinase reaction, ADP-Glo), PI3K delta; assay type: biochemical
Protocol: as §4, §5

[5] = test system: P-PRAS40 SW48(E545K); assay: Inhibition of P-PRAS40 in SW48 isogenic cells, PI3Kα mutant E545K; assay type: cell-based; conditions: for EC50: Homo sapiens, SW48, 24 hours of compound treatment, read-out: P-PRAS40 SW48(E545K) EC50; for Fold Selectivity for SW48(E545K) vs. SW48(parental): EC50 potency ratio, p value (Student t-Test) given
Protocol: as §1, §2, §3

[6] = test system: KPL4 breast cancer cell line (PI3Kα mutant H1047R) tumors; conditions: KPL4 xenograft in SCID mice, daily PO (oral) dosing; for Tolerability / treatment-related body weight loss: all doses; for Inhibition of KPL4 tumor growth in vivo: FIGS. 2A and 2B
Protocol: (70-72° F.) and 40-60% humidity.
Tumor weight may be estimated with the assumption that 1 mg is equivalent to 1 mm^3 of tumor volume.

[7] = test system: KPL4 cells (PI3Kα mutant H1047R); assay: In vitro cell viability assay (Cell Titer-Glo), KPL4
Protocol: (§6) Cells were seeded (1,500 per well) in 384-well plates for 16 h. On day 2, nine serial 1:3 compound dilutions were made in DMSO in a 96-well plate. The compounds were then further diluted into growth media using a Rapidplate robot (Zymark Corp.). The diluted compounds were then added to quadruplicate wells in the 384-well cell plates and incubated at 37° C. and 5% CO2. After 4 d, relative numbers of viable cells were measured by luminescence using Cell Titer-Glo (Promega) according to the manufacturer's instructions and read on a Wallac Multilabel Reader (Perkin-Elmer). EC50 values were calculated using Prism 6.0 software (GraphPad).

[8] = target: T2, PI3Kγ (Homo sapiens, UniProt P48736); assay: PI3K binding assay (lipid kinase reaction, ADP-Glo), PI3K gamma; assay type: biochemical; conditions: Table 2A; first value of cell (ADP-Glo, Example 901)
Protocol: as §4, §5

[9] = test system: HCC1954 cells (PI3Kα mutant H1047R); assay: In vitro cell viability assay (Cell Titer-Glo), HCC1954
Protocol: as §6

[10] = target: PI3Kα (Homo sapiens, UniProt P42336); assay: PI3K binding assay (lipid kinase reaction, ADP-Glo), PI3K alpha; assay type: biochemical; conditions: for Ki: first value of cell (ADP-Glo, Example 901), read-out: PI3Kα Ki
Protocol: as §4, §5

[11] = test system: MCF7 cells (PI3Kα mutant E545K); assay: In vitro cell viability assay (Cell Titer-Glo), MCF7
Protocol: as §6

[12] = target: T2, PI3Kγ; assay: Fluorescence polarization (FP) Ki, methods of Example 901 of U.S. Pat. No. 8,242,104, PI3K gamma; conditions: read-out: PI3Kγ FP Ki; Table 2A; second value of cell after slash (FP)
[13] = target: T1, PI3Kβ; assay: Fluorescence polarization (FP) Ki, methods of Example 901 of U.S. Pat. No. 8,242,104, PI3K beta; conditions: read-out: PI3Kβ FP Ki; Table 2A; second value of cell after slash (FP)
[14] = test system: locally advanced or metastatic solid tumors; conditions: phase Ia, single agent; all responses in patients with PIK3CA mutant tumors (Juric D. et al. AACR 2013); cited from earlier work
[15] = read-out: P-PRAS40 SW48(parental) EC50 (nM)
[16] = Table 2A, first value of cell (ADP-Glo, Example 901)
[17] = KPL4, 96 h, read-out: KPL4 antiproliferative EC50 (μM)
[18] = Homo sapiens, HCC1954, 96 h, read-out: HCC1954 antiproliferative EC50 (μM)
[19] = Table 2A, selectivity ratio (fold)
[20] = Homo sapiens, MCF7, 96 h, read-out: MCF7 antiproliferative EC50 (μM)
[21] = read-out: KPL4 antiproliferative EC50, 4 d incubation, Cell Titer-Glo
[22] = read-out: HCC1954 antiproliferative EC50, 4 d incubation, Cell Titer-Glo
[23] = read-out: MCF7 antiproliferative EC50, 4 d incubation, Cell Titer-Glo

T1 sequence (P42338 whole entry, canonical isoform): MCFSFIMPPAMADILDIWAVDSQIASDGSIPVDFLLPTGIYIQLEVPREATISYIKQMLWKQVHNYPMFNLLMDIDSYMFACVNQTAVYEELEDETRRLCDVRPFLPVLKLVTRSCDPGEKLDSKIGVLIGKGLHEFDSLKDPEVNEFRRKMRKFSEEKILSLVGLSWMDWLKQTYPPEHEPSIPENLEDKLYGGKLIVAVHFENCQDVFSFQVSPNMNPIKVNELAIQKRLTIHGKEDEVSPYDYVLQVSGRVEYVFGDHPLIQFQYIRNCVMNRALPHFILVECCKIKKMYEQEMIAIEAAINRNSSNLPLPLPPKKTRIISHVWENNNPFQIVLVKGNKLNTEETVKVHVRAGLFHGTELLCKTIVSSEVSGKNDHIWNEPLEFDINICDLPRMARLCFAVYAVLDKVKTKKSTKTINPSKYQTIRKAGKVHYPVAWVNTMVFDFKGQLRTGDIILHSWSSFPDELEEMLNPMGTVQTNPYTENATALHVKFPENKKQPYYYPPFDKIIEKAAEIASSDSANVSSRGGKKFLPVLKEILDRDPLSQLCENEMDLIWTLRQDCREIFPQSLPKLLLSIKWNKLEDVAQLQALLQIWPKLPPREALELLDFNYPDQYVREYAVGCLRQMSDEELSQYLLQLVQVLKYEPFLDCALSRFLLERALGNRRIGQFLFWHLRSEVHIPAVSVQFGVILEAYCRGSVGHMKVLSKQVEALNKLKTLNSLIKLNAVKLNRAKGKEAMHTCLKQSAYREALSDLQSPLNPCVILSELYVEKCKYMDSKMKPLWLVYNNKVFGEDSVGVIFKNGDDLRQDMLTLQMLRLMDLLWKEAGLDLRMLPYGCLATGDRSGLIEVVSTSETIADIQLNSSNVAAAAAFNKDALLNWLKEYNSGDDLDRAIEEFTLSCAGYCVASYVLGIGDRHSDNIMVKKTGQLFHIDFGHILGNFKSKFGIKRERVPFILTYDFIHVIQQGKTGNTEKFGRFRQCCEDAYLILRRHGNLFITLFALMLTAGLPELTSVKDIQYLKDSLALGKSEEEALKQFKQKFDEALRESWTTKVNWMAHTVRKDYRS
T1 sequence (P27986 whole entry partner, canonical isoform): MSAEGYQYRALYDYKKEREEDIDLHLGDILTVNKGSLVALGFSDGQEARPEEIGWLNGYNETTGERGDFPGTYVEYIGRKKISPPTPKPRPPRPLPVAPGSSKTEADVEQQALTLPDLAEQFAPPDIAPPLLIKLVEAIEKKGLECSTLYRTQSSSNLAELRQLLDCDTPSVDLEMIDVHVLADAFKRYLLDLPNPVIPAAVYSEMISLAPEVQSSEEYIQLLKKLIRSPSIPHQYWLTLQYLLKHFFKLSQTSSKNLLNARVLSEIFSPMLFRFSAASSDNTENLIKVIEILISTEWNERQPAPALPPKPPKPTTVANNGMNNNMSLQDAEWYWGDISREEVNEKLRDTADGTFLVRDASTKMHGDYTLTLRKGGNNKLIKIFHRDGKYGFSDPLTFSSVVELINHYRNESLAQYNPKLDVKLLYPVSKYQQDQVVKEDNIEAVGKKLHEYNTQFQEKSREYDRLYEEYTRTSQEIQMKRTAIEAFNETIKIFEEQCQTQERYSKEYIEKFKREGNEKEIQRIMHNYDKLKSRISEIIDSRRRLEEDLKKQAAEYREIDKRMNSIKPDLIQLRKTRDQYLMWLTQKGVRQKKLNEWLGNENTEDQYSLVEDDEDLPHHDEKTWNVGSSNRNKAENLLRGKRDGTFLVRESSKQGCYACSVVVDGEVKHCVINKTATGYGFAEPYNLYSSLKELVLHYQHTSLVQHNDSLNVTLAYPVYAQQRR
T2 sequence (P48736 whole entry): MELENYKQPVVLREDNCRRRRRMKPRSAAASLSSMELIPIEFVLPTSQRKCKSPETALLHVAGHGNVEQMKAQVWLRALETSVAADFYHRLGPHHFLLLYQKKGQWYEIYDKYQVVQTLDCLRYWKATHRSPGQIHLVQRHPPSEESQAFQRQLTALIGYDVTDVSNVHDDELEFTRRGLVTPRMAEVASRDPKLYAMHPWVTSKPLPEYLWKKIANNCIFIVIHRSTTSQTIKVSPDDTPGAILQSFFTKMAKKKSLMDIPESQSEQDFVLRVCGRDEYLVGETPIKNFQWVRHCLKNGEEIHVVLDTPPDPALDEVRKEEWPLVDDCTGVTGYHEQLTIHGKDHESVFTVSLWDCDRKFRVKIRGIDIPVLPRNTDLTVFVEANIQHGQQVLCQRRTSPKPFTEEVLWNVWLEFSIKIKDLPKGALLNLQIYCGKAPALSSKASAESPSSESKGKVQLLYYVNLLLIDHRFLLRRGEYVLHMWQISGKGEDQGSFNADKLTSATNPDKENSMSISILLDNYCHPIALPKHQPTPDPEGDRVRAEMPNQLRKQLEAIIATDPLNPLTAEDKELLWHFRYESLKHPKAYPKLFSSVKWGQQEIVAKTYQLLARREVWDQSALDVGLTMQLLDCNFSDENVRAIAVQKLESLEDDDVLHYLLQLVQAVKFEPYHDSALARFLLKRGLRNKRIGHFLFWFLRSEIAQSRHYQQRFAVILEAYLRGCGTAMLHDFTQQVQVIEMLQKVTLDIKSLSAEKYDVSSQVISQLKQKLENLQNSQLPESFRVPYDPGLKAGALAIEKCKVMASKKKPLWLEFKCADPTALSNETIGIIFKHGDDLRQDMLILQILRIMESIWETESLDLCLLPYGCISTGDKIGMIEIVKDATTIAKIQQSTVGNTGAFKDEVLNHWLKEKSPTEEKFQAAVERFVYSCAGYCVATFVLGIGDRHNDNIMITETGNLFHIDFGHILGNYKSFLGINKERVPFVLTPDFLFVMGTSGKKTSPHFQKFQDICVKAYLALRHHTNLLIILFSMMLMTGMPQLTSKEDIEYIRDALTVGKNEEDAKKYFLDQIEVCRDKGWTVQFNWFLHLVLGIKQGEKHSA
Sequence of PI3Kδ (O00329 whole entry): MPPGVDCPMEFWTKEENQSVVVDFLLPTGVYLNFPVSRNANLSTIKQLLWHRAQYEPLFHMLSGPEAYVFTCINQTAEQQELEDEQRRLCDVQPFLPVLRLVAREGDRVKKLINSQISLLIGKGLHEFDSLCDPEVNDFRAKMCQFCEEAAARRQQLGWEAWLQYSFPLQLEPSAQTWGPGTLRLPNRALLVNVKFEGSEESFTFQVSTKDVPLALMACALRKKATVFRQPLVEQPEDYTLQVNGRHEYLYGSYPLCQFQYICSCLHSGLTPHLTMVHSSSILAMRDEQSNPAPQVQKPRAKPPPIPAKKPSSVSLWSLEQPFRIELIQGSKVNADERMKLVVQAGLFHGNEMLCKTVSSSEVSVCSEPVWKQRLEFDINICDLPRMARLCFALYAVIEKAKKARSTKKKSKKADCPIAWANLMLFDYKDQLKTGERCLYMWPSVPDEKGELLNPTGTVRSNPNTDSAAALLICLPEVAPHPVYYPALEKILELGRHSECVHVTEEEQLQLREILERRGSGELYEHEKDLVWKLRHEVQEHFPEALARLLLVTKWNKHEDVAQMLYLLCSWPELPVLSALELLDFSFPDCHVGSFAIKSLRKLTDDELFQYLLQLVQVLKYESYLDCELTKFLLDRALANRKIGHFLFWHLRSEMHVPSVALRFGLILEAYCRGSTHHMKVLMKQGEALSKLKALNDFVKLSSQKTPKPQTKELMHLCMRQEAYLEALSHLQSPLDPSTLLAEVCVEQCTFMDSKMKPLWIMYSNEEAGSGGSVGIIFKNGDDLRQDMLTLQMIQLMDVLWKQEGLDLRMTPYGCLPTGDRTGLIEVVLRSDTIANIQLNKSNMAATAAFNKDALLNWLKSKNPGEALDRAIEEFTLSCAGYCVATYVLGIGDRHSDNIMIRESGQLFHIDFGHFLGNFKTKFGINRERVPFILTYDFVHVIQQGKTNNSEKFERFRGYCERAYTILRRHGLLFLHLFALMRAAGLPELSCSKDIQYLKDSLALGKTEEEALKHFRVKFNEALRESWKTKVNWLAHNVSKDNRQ
Sequence of PI3Kδ (P27986 whole entry partner): as the sequence (P27986 whole entry partner, canonical isoform) above
Sequence of PI3Kα (P42336 whole entry): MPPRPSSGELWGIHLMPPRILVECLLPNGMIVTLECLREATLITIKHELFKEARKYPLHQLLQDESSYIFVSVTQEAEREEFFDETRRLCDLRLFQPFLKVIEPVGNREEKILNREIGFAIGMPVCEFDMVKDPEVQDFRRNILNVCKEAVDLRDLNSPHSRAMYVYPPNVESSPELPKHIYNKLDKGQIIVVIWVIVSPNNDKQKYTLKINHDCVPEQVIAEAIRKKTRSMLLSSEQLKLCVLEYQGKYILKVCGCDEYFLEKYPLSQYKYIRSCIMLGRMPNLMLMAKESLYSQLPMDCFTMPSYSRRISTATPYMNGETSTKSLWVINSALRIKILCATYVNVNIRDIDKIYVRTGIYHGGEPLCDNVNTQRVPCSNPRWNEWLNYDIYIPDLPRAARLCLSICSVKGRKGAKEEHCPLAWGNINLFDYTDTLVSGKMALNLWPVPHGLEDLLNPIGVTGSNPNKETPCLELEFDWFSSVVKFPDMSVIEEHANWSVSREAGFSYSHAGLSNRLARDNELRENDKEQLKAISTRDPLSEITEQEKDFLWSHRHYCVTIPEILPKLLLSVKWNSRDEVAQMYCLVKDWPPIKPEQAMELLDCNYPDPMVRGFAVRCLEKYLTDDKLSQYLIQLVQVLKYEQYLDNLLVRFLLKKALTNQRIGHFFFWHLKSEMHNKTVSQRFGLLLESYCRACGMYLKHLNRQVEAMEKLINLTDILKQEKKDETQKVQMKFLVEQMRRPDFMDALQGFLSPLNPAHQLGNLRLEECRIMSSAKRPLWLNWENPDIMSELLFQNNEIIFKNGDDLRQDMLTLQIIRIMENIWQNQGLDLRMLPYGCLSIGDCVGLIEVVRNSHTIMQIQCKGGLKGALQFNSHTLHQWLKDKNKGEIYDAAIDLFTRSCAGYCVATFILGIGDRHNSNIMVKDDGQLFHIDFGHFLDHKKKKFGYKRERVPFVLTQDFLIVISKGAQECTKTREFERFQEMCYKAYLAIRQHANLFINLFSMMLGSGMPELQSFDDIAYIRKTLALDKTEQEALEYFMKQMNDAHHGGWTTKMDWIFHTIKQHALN
Sequence of PI3Kα (P27986 whole entry partner): as the sequence (P27986 whole entry partner, canonical isoform) above

C[C@@H]1COC(=O)N1c1cn2c(n1)-c1ccc(N3CCC[C@H]3C(N)=O)cc1OCC2 [Compound 102, (S)-1-(2-((R)-4-Methyl-2-oxooxazolidin-3-yl)-5,6-dihydrobenzo[f]imidazo[1,2-d][1,4]oxazepin-9-yl)pyrrolidine-2-carboxamide]
EC50 ([1]; Table 3A, geometric mean): 16.4 nM
Fold Selectivity for SW48(H1047R) vs. SW48(parental) ([1]; Table 3A): 2.4 (p < 0.001)
EC50 [2, 15]: 39.2 nM
Ki [3]: 418 nM
Ki [4, 16]: 13.3 nM
EC50 ([5]; Table 3A, geometric mean): 16.6 nM
Fold Selectivity for SW48(E545K) vs. SW48(parental) ([5]; Table 3A): 2.4 (p < 0.001)
Tolerability / treatment-related body weight loss [6]: well tolerated, with no treatment-related body weight loss observed
Inhibition of KPL4 tumor growth in vivo [6]: strongly inhibit the growth of KPL4 tumors in vivo in a dose-dependent manner
EC50 [7, 17]: 0.05 µM
Ki [8]: 205 nM
EC50 [9, 18]: 0.48 µM
Ki ([10]; Table 2A): 0.56 nM
Selectivity for PI3Kα vs. PI3K-β [10, 19]: 745
Selectivity for PI3Kα vs. PI3Kγ [10, 19]: 366
Selectivity for PI3Kα vs. PI3Kδ [10, 19]: 24
EC50 [11, 20]: 0.1 µM

NC(=O)[C@@H]1CCCN1c1ccc2c(c1)OCCn1cc(N3C(=O)OC[C@H]3C(F)(F)F)nc1-2 [Compound 103, (S)-1-(2-((S)-2-Oxo-4-(trifluoromethyl)oxazolidin-3-yl)-5,6-dihydrobenzo[f]imidazo[1,2-d][1,4]oxazepin-9-yl)pyrrolidine-2-carboxamide]
EC50 ([1]; Table 3A, geometric mean): 7.1 nM
Fold Selectivity for SW48(H1047R) vs. SW48(parental) ([1]; Table 3A): 2.6 (p = 0.002)
EC50 [2, 15]: 18.7 nM
Ki [3]: 108 nM
Ki [4, 16]: 2.28 nM
EC50 ([5]; Table 3A, geometric mean): 6.9 nM
Fold Selectivity for SW48(E545K) vs. SW48(parental) ([5]; Table 3A): 2.7 (p = 0.002)
Tolerability / treatment-related body weight loss [6]: well tolerated, with no treatment-related body weight loss observed
Inhibition of KPL4 tumor growth in vivo [6]: strongly inhibit the growth of KPL4 tumors in vivo in a dose-dependent manner
EC50 [7, 17]: 0.02 µM
Ki [8]: 45 nM
EC50 [9, 18]: 0.15 µM
Ki ([10]; Table 2A): 0.155 nM
Selectivity for PI3Kα vs. PI3K-β [10, 19]: 698
Selectivity for PI3Kα vs. PI3Kγ [10, 19]: 290
Selectivity for PI3Kα vs. PI3Kδ [10, 19]: 15
EC50 [11, 20]: 0.38 µM

C[C@H](Oc1ccc2c(c1)OCCn1cc(N3C(=O)OC[C@H]3C(F)(F)F)nc1-2)C(N)=O [Compound 105, (S)-2-((2-((S)-2-Oxo-4-(trifluoromethyl)oxazolidin-3-yl)-5,6-dihydrobenzo[f]imidazo[1,2-d][1,4]oxazepin-9-yl)oxy)propanamide]
EC50 ([1]; Table 3A, geometric mean): 53.6 nM
Fold Selectivity for SW48(H1047R) vs. SW48(parental) ([1]; Table 3A): 3.7 (p = 0.008)
EC50 [2, 15]: 199 nM
Ki [3]: 661 nM
Ki [4, 16]: 42.2 nM
EC50 ([5]; Table 3A, geometric mean): 62.9 nM
Fold Selectivity for SW48(E545K) vs. SW48(parental) ([5]; Table 3A): 3.2 (p = 0.012)
EC50 [7, 17]: 0.008 µM
Ki [8]: 255 nM
EC50 [9, 18]: 0.005 µM
Selectivity for PI3Kα vs. PI3K-β [10]: 241
Selectivity for PI3Kα vs. PI3Kγ [10]: 93
Selectivity for PI3Kα vs. PI3Kδ [10]: 15
Ki ([10]; Table 2A): 2.75 nM
EC50 [11, 20]: 0.05 µM

C[C@H](Oc1ccc2c(c1)OCCn1cc(N3C(=O)OC[C@H]3CF)nc1-2)C(N)=O [Compound 109, (S)-2-((2-((S)-4-(Fluoromethyl)-2-oxooxazolidin-3-yl)-5,6-dihydrobenzo[f]imidazo[1,2-d][1,4]oxazepin-9-yl)oxy)propanamide]
EC50 ([1]; Table 3A, geometric mean): 28 nM
Fold Selectivity for SW48(H1047R) vs. SW48(parental) ([1]; Table 3A): 2.6 (p < 0.001)
EC50 [2, 15]: 74 nM
Ki [3]: 376 nM
Ki [4, 16]: 30.3 nM
EC50 ([5]; Table 3A, geometric mean): 33.2 nM
Fold Selectivity for SW48(E545K) vs. SW48(parental) ([5]; Table 3A): 2.2 (p = 0.002)
Ki [8]: 126 nM
Selectivity for PI3Kα vs. PI3K-β [10]: 379
Selectivity for PI3Kα vs. PI3Kγ [10]: 127
Selectivity for PI3Kα vs. PI3Kδ [10]: 31
Ki ([10]; Table 2A): 0.993 nM

CC(C)n1ncnc1-c1cn2c(n1)-c1ccc(O[C@@H](C)C(N)=O)cc1OCC2 [Compound 436, reference compound]
Ki ([4]; Table 2B comparator compounds, first value of cell (ADP-Glo)): 7.72 nM
EC50 [7, 17]: 0.05 µM

CS(=O)(=O)N1CCN(Cc2cc3nc(-c4cccc5[nH]ncc45)nc(N4CCOCC4)c3s2)CC1 [pictilisib, 4-(2-(1H-indazol-4-yl)-6-((4-(methylsulfonyl)piperazin-1-yl)methyl)thieno[3,2-d]pyrimidin-4-yl)morpholine, reference compound]
EC50 [7, 21]: 0.21 µM
EC50 [9, 22]: 0.75 µM
EC50 [11, 23]: 0.12 µM

Cc1nc(-c2cn3c(n2)-c2ccc(-c4cnn(C(C)(C)C(N)=O)c4)cc2OCC3)n(C(C)C)n1 [taselisib, 2-(4-(2-(1-isopropyl-3-methyl-1H-1,2,4-triazol-5-yl)-5,6-dihydrobenzo[f]imidazo[1,2-d][1,4]oxazepin-9-yl)-1H-pyrazol-1-yl)-2-methylpropanamide, reference compound]
EC50 ([1]; Table 3B comparator compounds): 4 nM
EC50 ([2]; read-out: P-PRAS40 SW48(parental) EC50 (μM)): 7.9 nM
Ki [3]: 53 nM
Ki [12]: 0.97 nM
EC50 ([5]; Table 3B comparator compounds): 3.4 nM
Ki [13]: 9.1 nM
Partial responses (PRs) in enrolled patients [14]: 6/34
EC50 [7, 21]: 0.02 µM
EC50 [9, 22]: 0.04 µM
EC50 [11, 23]: 0.02 µM

— patent US9643980B2, “Benzoxazepin oxazolidinone compounds and methods of use” (Genentech, Inc., priority 2015, dated 2017)
